The values that follow come from patent US6878747B2, “Systemic formulations containing beta-carotene and derivatives thereof” (priority 2001, dated 2005).

A short description of data set [1]: Soluabilization in THF, Example 11. It is filed as physicochemical. As to conditions: hand shaking, results approximate. As for the experimental part:
All experimental substances (retinol, retinoic acid, 9-cis retinoic acid, retinal) were from Sigma (St. Louis, Mo.). All experimental substances were provided in sealed ampules.
The solvent, Tetrahydrofuran (stabilized with BHT) was also from Sigma.^1
^1 In the soluabilization experiments described in Examples 11 and 12 a small amount of yellow material appeared on the bottom of the stopper. In addition, since THF is somewhat volatile, the results are approximate.
2 ml shell vials from Electron Microscopy Sciences (Fort Washington, Pa.) Hamilton glass syringes (100 microliter, 250 microliter, 500 microliter) were from Fisher Scientific (Pittsburgh, Pa.). Silicone stoppers and other glassware were also from Fisher Scientific.
All of a retinoic acid ampule (100 mg ) was poured into a 2 ml shell vial and stoppered with a silicon stopper. Using a 500 microliter Hamilton syringe, 500 microliters of THF was added to the vial and then shaken by hand.
a. 25 mg ampule of retinol was poured into a 2 ml shell vial and it soluabilized completely in 250 microliters of THF.
b. 100 mg ampule of retinol was poured into a vial and it soluabilized completely in 0.5 ml of THF.
c. 100 mg ampule of retinol was poured into a vial and it soluabilized completely in 0.1 ml THF.
20 microliters THF from a Hamilton syringe was added to an ampule containing 1 mg of 9-cis retinoic acid. It appeared that complete soluability was achieved.
A 100 mg ampule of retinal was emptied into a 2 ml shell vial, and was completely soluabilized with hand shaking in 100 microliters of THF.

Data set [2] is described as follows: Soluabilization in THF, Example 12. It is filed as physicochemical. As to conditions: results approximate. As for the experimental part: All materials and sources were the same as in Example 11.The only additions were the use of 4.3 ml glass shell vials from Electron Microscopy Sciences, 10 ml glass centrifuge tubes from Fisher, and a 1.25 ml glass Hamilton syringe from Fisher.
All of a retinoic acid (1 gram) ampule was poured into a 10 ml glass centrifuge tube and stoppered with a silicon stopper. 7 ml of THF was added to the tube and then shaken by hand. This was performed twice.
All of a 1 gram ampule was poured into a 4.3 ml shell vial and stoppered with a silicon stopper. Using a 1.25 ml Hamilton syringe, 1.0 ml of THF was added to the vial and then shaken by hand. It soluabilized completely.
10 microliters THF from a Hamilton syringe was added to a ampule containing 1 mg of 9-cis retinoic acid. It appeared that complete soluability was achieved.
A 500 mg ampule of retinal was emptied into a 2 ml shell vial, and was completely soluabilized with hand shaking in 0.5 ml of THF.

Data set [3] is described as follows: Maximum concentration of beta-carotene dissolving in THF. The class given is physicochemical. As for the experimental part: The formulation broadly comprises from about 0.1 to about 9.3 mg and preferably from about 1 to about 6 mg of beta-carotene per ml of tetrahydrofuran. The maximum concentration of beta-carotene capable of dissolving in THF is 9.3 mg/ml. Solubility problems arise above this concentration of beta-carotene. Beta-carotene and derivatives thereof for use in the present invention is commercially available from Sigma Chemical Co. or Fisher Scientific Co.

For data set [4], the system named is human melanoma cell cultures. The experiment in a line: Beta-carotene treatment of melanoma cell cultures, Example 9. As to conditions: beta-carotene 33 mg/ml in medium, 0.5% THF, 7 days. It is filed as cell-based. As for the experimental part:
Experiment: Beta-carotene in tetrahydrofuran (THF) was added to McCoy's 5A modified medium at a concentration of 33 mg/ml with a final concentration of 0.5% THF. This supplemented medium was added to Leighton tubes (containing melanoma cells) after removal of un-supplemented medium and was replaced every 2 days during the 7 day experimental period. At the end of 7 days, the cultures were fixed in methanol and the cover slips were Giemsa stained.

For data set [5], the system named is intra-abdominal sepsis in a rat model. As to conditions: dietary supplementation; beta-carotene 90 mg/kg; cited from earlier work.
Another data set relates to human hepatocytes. The experiment in a line: Absorption of beta-carotene in THF in human hepatocytes. It is filed as in vitro ADME. As to conditions: 10 μM beta-carotene, 0.05% THF, 24 hours incubation; three samples. How it is done:
The following experiment was performed three times to determine the absorption of beta-carotene in THF in human hepatocytes.
Beta-carotene was dissolved in a solution containing 99.9% (w/w) tetrahydrofuran (THF) with 0.025% (w/w) butylated hydroxytoluene (BHT) to obtain a 2000× (20 mM) stock solution. While the incubation media was rapidly stirred, the stock solution was added to create a final 1× dosing solution containing 10 μM beta-carotene and 0.05% THF.
Hepatocytes were isolated and cryopreserved according to the methods described in Li, A. P., et al., Isolation and culturing of hepatocytes from human liver, J. Tiss. Culture Methods, 14:139-146(1992); Li rat and human hepatocytes as multicellular spheroids, In Vitro Cell. Dev. Biol., 28A:673-677 (1992); and Loretz, L. J. et al., Promutagen activation by freshly isolated and cryopreserved rat hepatocytes, Environ. Mol. Mutag., 12(3):335-341. Portions of liver tissue were processed into hepatocytes by collagenase-based digestion of connective tissue, followed by manual and mechanical separation and washing with media. Isolated hepatocytes were counted to determine yield, and viability was measured using Trypan Blue™ exclusion. The viability of the cells was 90%. The cells were resuspended in the plating media described above at a density of 0.7×10^6 cells/mL. […]

Data set [6] has as its system human melanoma cell cultures. The experiment in a line: Guanosine then beta-carotene treatment of melanoma cell cultures, Example 10. It is filed as cell-based. As to conditions: 7 days. As for the experimental part: Guanosine was added to McCoy's 5A modified medium at a concentration of 3 mg/ml. This supplemented medium was added to Leighton tubes after removal of an non-supplemented medium and was replaced every 2 days for 7 days. Beta-carotene in THF was added to McCoy's 5A modified medium at a concentration of 33 mg/ml with a final concentration of 0.5% THF. This supplemented medium was added to the Leighton tubes after removal of guanosine supplemented medium and was replaced every 2 days for an additional 7 day experimental period. At the end of 14 days, the cultures were fixed in methanol and the cover slips were Giemsa stained.

Data set [7] has as its system right calf of a health professional. As to conditions: in vivo. The text has this: Retinol, retinal, and retinoic acid, were each soluabilized in THF as described above and used as follows. A fingertip amount of each (e.g. retinoic acid, retinol retinal?) was rubbed into the right calf of a health professional.
Data set [8] deals with human with male pattern baldness. The experiment in a line: Topical use in human male pattern baldness. The class given is in vivo. As to conditions: in THF, applied daily to thinning vertex; within 4 months. An excerpt:
A human with male pattern baldness applies retinol in THF daily to their thinning vertex.

Setting [9] is: beta-carotene 33 mg/ml, 0.5% THF, after 7 days of guanosine 3 mg/ml.

Regarding `CC1=C(/C=C/C(C)=C\C=C\C(C)=C\C(=O)O)C(C)(C)CCC1` [9-cis retinoic acid], the “soluability in THF” value in [1] is “at least 50 mg/ml THF”; in [2], “about 100 mg/ml THF”.
Regarding `CC1=C(/C=C/C(C)=C/C=C/C(C)=C/C=C/C=C(C)/C=C/C=C(C)/C=C/C2=C(C)CCCC2(C)C)C(C)(C)CCC1` [beta-carotene], the “maximum concentration of beta-carotene capable of dissolving in THF” value in data set [3] turned out to be 9.3 mg/mL. Besides, the “cell death in culture compared with control cultures” value in data set [4] is reported as “a large segment of the starting population died”. Besides, the “morphology of the remaining cells” value in [4] (Giemsa stained) was “most had triangular morphology and a large nucleus, consistent with neural cells, or were fusiform in shape”. Besides, the “protective effect on intra-abdominal sepsis” value in data set [5] is recorded as “lesser effect”. In addition, the “detection of beta-carotene in the cells (dark regions, light microscope)” value with human hepatocytes is “presence of beta-carotene in the cells”. Further, in data set [6] (setting [9]), the “cell death in culture” value is “did not cause the extensive cell death” and the “morphology of the surviving cells” value is listed as “most of those had a neuronal morphology”.
In the case of `Nc1nc2c(ncn2[C@@H]2O[C@H](CO)[C@@H](O)[C@H]2O)c(=O)[nH]1` [guanosine, Guanosine], the “phenotypic changes in the overall cell population” value in data set [6] (guanosine 3 mg/ml in medium) is on record as “many cells with an increased nuclear to cytoplasmic ratio”.
Turning to `CC1=C(/C=C/C(C)=C/C=C/C(C)=C/C=O)C(C)(C)CCC1` [retinal], the “soluability in THF” value in data set [1] and in [2] was “about 1 gm/ml THF” in each case. In addition, the “signs of toxicity, topically or systemically” value (“signs of toxicity” for short) in [7] was “no signs of toxicity”.
With `CC1=C(/C=C/C(C)=C/C=C/C(C)=C/C(=O)O)C(C)(C)CCC1` [retinoic acid], the “signs of toxicity” value in [7] is listed as “no signs of toxicity”.
Take `CC1=C(/C=C/C(C)=C/C=C/C(C)=C/CO)C(C)(C)CCC1` [retinol]: the “soluability in THF” value in data set [1] and in data set [2] was “about 1 gm/ml THF” throughout. The “signs of toxicity” value in data set [7] was “no signs of toxicity”. The “new hair growth (hair counts, investigator and patient assessment)” value in data set [8] was “significant new hair growth”.
For Vitamin A, the “protective effect on intra-abdominal sepsis” value in [5] is given as “significant protective effect”.
